# According to ChEMBL document CHEMBL3885881, “DrugMatrix”:
# Organism: Rattus norvegicus
# Assay: DrugMatrix - Regimen: Daily Repeat
# Assay type: toxicity, organism-based, Sprague-Dawley
# Design: regimen Daily Repeat, gender Male, age 6-8 weeks
# Conditions: in vivo, po, route oral GAVAGE, vehicle 100 % WATER; for ABSOLUTE BASOPHIL / ABSOLUTE EOSINOPHIL / ABSOLUTE LYMPHOCYTE / ABSOLUTE MONOCYTE / ABSOLUTE SEGMENTED NEUTROPHIL / BASOPHIL / EOSINOPHIL / ERYTHROCYTE COUNT / HEMATOCRIT / HEMOGLOBIN / LEUKOCYTE COUNT / LYMPHOCYTE / MEAN CORPUSCULAR HEMOGLOBIN / MEAN CORPUSCULAR HEMOGLOBIN CONCENTRATION / MEAN CORPUSCULAR VOLUME / MONOCYTE / NEUTROPHIL / NUCLEATED RED BLOOD CELLS / PLATELET COUNT: tissue Blood; for ALANINE AMINOTRANSFERASE / ALBUMIN / ALKALINE PHOSPHATASE / ASPARTATE AMINOTRANSFERASE / BLOOD UREA NITROGEN / CARBON DIOXIDE / CHLORIDE / CHOLESTEROL / CREATINE PHOSPHOKINASE / CREATININE / GLUCOSE / LACTATE DEHYDROGENASE / LIPASE / PHOSPHORUS / POTASSIUM / SODIUM / TOTAL BILIRUBIN / TOTAL PROTEIN / URIC ACID: tissue Plasma
# [1] = 0 mg/kg, 72 h, dose level Control, time 3 day
# [2] = 0 mg/kg, 120 h, dose level Control, time 5 day
# [3] = 11 mg/kg, 72 h, dose level Low, time 3 day
smiles,measurement,setting,value
CNS(=O)(=O)Cc1ccc2[nH]cc(CCN(C)C)c2c1,ABSOLUTE BASOPHIL,[1],0 CELLS/uL
same,ABSOLUTE EOSINOPHIL,[1],86.33 CELLS/uL
same,ABSOLUTE LYMPHOCYTE,[1],12090.17 CELLS/uL
same,ABSOLUTE MONOCYTE,[1],166.67 CELLS/uL
same,ABSOLUTE SEGMENTED NEUTROPHIL,[1],1090.17 CELLS/uL
same,BASOPHIL,[1],0%
same,EOSINOPHIL,[1],0.67%
same,ERYTHROCYTE COUNT,[1],5.57 x10E6/uL
same,HEMATOCRIT,[1],35.33%
same,HEMOGLOBIN,[1],13.83 G/DL
same,LEUKOCYTE COUNT,[1],13.43 x10E3/uL
same,LYMPHOCYTE,[1],89.83%
same,MEAN CORPUSCULAR HEMOGLOBIN,[1],24.88 pg
same,MEAN CORPUSCULAR HEMOGLOBIN CONCENTRATION,[1],39.15 G/DL
same,MEAN CORPUSCULAR VOLUME,[1],63.52 fL
same,MONOCYTE,[1],1.17%
same,NEUTROPHIL,[1],8.33%
same,NUCLEATED RED BLOOD CELLS,[1],0 /100WBC
same,PLATELET COUNT,[1],1181.33 x10E3/uL
same,ALANINE AMINOTRANSFERASE,[1],48.33 u/L
same,ALBUMIN,[1],4.1 G/DL
same,ALKALINE PHOSPHATASE,[1],395 u/L
same,ASPARTATE AMINOTRANSFERASE,[1],81.83 u/L
same,BLOOD UREA NITROGEN,[1],15.83 mg/dL
same,CARBON DIOXIDE,[1],24.17 mmol/L
same,CHLORIDE,[1],103.83 MEQ/L
same,CHOLESTEROL,[1],63.67 mg/dL
same,CREATINE PHOSPHOKINASE,[1],372.83 u/L
same,CREATININE,[1],0.18 mg/dL
same,GLUCOSE,[1],173.83 mg/dL
same,LACTATE DEHYDROGENASE,[1],188.33 u/L
same,LIPASE,[1],9.5 u/L
same,PHOSPHORUS,[1],11.95 mg/dL
same,POTASSIUM,[1],5.99 MEQ/L
same,SODIUM,[1],144.43 MEQ/L
same,TOTAL BILIRUBIN,[1],0.15 mg/dL
same,TOTAL PROTEIN,[1],5.95 G/DL
same,URIC ACID,[1],1.82 mg/dL
same,ABSOLUTE BASOPHIL,[2],0 CELLS/uL
same,ABSOLUTE EOSINOPHIL,[2],26.67 CELLS/uL
same,ABSOLUTE LYMPHOCYTE,[2],7583.83 CELLS/uL
same,ABSOLUTE MONOCYTE,[2],131.33 CELLS/uL
same,ABSOLUTE SEGMENTED NEUTROPHIL,[2],674.83 CELLS/uL
same,BASOPHIL,[2],0%
same,EOSINOPHIL,[2],0.33%
same,ERYTHROCYTE COUNT,[2],5.78 x10E6/uL
same,HEMATOCRIT,[2],36.48%
same,HEMOGLOBIN,[2],14.03 G/DL
same,LEUKOCYTE COUNT,[2],8.42 x10E3/uL
same,LYMPHOCYTE,[2],89.83%
same,MEAN CORPUSCULAR HEMOGLOBIN,[2],24.3 pg
same,MEAN CORPUSCULAR HEMOGLOBIN CONCENTRATION,[2],38.52 G/DL
same,MEAN CORPUSCULAR VOLUME,[2],63.15 fL
same,MONOCYTE,[2],1.67%
same,NEUTROPHIL,[2],8.17%
same,NUCLEATED RED BLOOD CELLS,[2],0 /100WBC
same,PLATELET COUNT,[2],1186.67 x10E3/uL
same,ALANINE AMINOTRANSFERASE,[2],50.17 u/L
same,ALBUMIN,[2],4.07 G/DL
same,ALKALINE PHOSPHATASE,[2],367.5 u/L
same,ASPARTATE AMINOTRANSFERASE,[2],81.67 u/L
same,BLOOD UREA NITROGEN,[2],16.17 mg/dL
same,CARBON DIOXIDE,[2],32.33 mmol/L
same,CHLORIDE,[2],101.5 MEQ/L
same,CHOLESTEROL,[2],65.33 mg/dL
same,CREATINE PHOSPHOKINASE,[2],255.33 u/L
same,CREATININE,[2],0.17 mg/dL
same,GLUCOSE,[2],139.33 mg/dL
same,LACTATE DEHYDROGENASE,[2],95 u/L
same,LIPASE,[2],10.5 u/L
same,PHOSPHORUS,[2],10.38 mg/dL
same,POTASSIUM,[2],6.11 MEQ/L
same,SODIUM,[2],145.55 MEQ/L
same,TOTAL BILIRUBIN,[2],0.17 mg/dL
same,TOTAL PROTEIN,[2],5.98 G/DL
same,URIC ACID,[2],0.93 mg/dL
same,ABSOLUTE BASOPHIL,[3],0 CELLS/uL
same,ABSOLUTE EOSINOPHIL,[3],39 CELLS/uL
same,ABSOLUTE LYMPHOCYTE,[3],10656.67 CELLS/uL
same,ABSOLUTE MONOCYTE,[3],38.67 CELLS/uL
same,ABSOLUTE SEGMENTED NEUTROPHIL,[3],1065.67 CELLS/uL
same,BASOPHIL,[3],0%
same,EOSINOPHIL,[3],0.33%
same,ERYTHROCYTE COUNT,[3],5.76 x10E6/uL
same,HEMATOCRIT,[3],36.33%
same,HEMOGLOBIN,[3],13.93 G/DL
same,LEUKOCYTE COUNT,[3],11.8 x10E3/uL
same,LYMPHOCYTE,[3],90.33%
same,MEAN CORPUSCULAR HEMOGLOBIN,[3],24.2 pg
same,MEAN CORPUSCULAR HEMOGLOBIN CONCENTRATION,[3],38.37 G/DL
same,MEAN CORPUSCULAR VOLUME,[3],63.07 fL
same,MONOCYTE,[3],0.33%
same,NEUTROPHIL,[3],9%
same,NUCLEATED RED BLOOD CELLS,[3],0 /100WBC
same,PLATELET COUNT,[3],1289 x10E3/uL
same,ALANINE AMINOTRANSFERASE,[3],45 u/L
same,ALBUMIN,[3],3.83 G/DL
same,ALKALINE PHOSPHATASE,[3],321.33 u/L
same,ASPARTATE AMINOTRANSFERASE,[3],76.67 u/L
same,BLOOD UREA NITROGEN,[3],14.67 mg/dL
same,CARBON DIOXIDE,[3],26 mmol/L
same,CHLORIDE,[3],103.33 MEQ/L
same,CHOLESTEROL,[3],64.67 mg/dL
same,CREATINE PHOSPHOKINASE,[3],413.33 u/L
same,CREATININE,[3],0.14 mg/dL
same,GLUCOSE,[3],155 mg/dL
same,LACTATE DEHYDROGENASE,[3],166.33 u/L
same,LIPASE,[3],8.67 u/L
same,PHOSPHORUS,[3],12.6 mg/dL
same,POTASSIUM,[3],6.24 MEQ/L
same,SODIUM,[3],143.73 MEQ/L
same,TOTAL BILIRUBIN,[3],0.17 mg/dL
same,TOTAL PROTEIN,[3],5.63 G/DL
same,URIC ACID,[3],1.4 mg/dL
